Measurements published in the Kinase Knowledgebase extract (Sharma et al. 2016).

How the values were obtained:
[1] = target: PIK3CD (Human) (UniProt O00329); assay: Assessment of PIK3CD Kinase Activity
[2] = target: PIK3CG (human) (UniProt P48736); assay: Assessment of PIK3CG Kinase Activity
[3] = target: PIK3CA (human) (UniProt P42336); assay: Assessment of PIK3CA Kinase Activity
[4] = target: PIK3CB (Human) (UniProt P42338); assay: Assessment of PIK3CB Kinase Activity
PIK3CB (Human), sequence (P42338 whole entry, looked up): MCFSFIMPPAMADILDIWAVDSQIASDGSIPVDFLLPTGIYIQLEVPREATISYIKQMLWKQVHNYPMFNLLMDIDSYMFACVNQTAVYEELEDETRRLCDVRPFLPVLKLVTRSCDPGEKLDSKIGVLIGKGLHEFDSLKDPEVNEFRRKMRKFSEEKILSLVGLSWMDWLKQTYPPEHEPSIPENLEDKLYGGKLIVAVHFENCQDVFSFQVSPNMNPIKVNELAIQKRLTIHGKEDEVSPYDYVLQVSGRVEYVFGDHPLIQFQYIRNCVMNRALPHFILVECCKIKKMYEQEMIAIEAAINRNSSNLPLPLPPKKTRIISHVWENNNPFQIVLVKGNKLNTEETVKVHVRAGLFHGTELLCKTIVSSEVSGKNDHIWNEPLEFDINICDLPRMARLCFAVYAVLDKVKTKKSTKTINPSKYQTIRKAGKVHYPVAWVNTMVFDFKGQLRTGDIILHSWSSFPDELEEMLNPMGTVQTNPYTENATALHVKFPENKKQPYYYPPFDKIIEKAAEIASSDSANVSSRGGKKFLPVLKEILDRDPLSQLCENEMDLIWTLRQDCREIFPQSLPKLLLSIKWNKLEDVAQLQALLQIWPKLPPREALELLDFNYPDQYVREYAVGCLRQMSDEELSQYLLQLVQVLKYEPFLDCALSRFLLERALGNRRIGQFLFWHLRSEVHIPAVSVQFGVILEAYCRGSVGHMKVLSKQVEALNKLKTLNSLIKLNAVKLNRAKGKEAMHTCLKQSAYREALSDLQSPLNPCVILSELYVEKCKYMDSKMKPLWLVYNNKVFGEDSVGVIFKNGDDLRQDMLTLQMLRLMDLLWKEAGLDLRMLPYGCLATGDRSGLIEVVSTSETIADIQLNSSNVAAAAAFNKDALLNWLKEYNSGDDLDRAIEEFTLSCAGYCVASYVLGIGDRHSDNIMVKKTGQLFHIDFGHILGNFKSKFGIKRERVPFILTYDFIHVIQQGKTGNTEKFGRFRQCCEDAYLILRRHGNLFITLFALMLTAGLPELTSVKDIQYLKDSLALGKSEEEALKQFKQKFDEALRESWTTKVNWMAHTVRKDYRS

PIK3CG (human), sequence (P48736 whole entry, looked up): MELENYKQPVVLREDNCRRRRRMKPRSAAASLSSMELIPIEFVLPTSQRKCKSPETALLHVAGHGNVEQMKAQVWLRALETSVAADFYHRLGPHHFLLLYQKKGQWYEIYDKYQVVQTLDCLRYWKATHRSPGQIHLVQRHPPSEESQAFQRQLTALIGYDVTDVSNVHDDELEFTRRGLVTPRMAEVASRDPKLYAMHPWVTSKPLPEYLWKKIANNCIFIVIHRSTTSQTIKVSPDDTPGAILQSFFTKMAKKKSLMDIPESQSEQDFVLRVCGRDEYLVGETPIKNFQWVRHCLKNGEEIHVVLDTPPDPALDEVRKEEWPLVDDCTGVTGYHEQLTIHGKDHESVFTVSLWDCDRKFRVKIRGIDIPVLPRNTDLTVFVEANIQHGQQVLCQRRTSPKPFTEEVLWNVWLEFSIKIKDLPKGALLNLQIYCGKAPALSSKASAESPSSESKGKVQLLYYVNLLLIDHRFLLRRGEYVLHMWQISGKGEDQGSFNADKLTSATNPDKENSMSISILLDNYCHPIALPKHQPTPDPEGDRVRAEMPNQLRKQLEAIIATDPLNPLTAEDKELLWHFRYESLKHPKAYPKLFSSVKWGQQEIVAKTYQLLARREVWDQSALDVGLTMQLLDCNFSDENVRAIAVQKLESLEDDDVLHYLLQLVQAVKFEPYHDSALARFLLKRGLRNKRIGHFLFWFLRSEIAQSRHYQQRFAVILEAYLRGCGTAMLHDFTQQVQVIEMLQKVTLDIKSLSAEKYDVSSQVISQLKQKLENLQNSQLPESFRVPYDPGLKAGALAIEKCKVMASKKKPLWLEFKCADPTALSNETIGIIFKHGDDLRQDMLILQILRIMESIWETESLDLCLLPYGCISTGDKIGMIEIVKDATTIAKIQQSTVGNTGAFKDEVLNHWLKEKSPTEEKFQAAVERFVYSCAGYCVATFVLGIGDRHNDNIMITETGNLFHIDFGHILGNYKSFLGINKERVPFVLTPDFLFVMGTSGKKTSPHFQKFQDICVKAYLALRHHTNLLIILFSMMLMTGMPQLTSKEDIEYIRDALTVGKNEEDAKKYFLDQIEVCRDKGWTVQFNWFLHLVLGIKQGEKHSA
PIK3CA (human), sequence (P42336 whole entry, looked up): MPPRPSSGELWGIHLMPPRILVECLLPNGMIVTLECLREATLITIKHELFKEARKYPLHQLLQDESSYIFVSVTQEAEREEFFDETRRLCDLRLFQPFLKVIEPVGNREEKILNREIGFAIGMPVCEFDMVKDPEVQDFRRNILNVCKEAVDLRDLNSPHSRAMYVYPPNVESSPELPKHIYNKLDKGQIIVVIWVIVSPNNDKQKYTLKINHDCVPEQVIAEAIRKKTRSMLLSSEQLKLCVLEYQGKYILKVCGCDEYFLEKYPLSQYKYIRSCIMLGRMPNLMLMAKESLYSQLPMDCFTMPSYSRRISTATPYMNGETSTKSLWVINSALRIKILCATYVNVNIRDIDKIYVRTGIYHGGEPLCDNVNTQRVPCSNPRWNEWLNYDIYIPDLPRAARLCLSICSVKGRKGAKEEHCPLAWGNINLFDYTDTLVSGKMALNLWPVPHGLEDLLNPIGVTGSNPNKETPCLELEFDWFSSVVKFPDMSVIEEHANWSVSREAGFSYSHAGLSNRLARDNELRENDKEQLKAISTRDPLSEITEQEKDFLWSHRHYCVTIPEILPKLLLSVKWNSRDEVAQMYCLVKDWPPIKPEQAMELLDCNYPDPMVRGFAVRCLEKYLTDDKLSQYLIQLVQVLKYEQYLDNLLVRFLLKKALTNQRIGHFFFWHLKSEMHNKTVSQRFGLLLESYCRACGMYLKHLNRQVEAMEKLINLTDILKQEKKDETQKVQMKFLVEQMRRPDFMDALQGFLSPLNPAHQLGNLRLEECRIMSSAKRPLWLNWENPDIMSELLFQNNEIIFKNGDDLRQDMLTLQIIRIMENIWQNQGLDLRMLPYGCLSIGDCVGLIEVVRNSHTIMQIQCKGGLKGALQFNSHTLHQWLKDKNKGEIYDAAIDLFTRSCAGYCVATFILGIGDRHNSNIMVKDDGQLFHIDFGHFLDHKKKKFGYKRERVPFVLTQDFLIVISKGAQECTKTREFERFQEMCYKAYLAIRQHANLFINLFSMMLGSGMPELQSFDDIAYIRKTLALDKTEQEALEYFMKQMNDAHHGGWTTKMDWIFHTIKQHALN
PIK3CD (Human), sequence (O00329 whole entry, looked up): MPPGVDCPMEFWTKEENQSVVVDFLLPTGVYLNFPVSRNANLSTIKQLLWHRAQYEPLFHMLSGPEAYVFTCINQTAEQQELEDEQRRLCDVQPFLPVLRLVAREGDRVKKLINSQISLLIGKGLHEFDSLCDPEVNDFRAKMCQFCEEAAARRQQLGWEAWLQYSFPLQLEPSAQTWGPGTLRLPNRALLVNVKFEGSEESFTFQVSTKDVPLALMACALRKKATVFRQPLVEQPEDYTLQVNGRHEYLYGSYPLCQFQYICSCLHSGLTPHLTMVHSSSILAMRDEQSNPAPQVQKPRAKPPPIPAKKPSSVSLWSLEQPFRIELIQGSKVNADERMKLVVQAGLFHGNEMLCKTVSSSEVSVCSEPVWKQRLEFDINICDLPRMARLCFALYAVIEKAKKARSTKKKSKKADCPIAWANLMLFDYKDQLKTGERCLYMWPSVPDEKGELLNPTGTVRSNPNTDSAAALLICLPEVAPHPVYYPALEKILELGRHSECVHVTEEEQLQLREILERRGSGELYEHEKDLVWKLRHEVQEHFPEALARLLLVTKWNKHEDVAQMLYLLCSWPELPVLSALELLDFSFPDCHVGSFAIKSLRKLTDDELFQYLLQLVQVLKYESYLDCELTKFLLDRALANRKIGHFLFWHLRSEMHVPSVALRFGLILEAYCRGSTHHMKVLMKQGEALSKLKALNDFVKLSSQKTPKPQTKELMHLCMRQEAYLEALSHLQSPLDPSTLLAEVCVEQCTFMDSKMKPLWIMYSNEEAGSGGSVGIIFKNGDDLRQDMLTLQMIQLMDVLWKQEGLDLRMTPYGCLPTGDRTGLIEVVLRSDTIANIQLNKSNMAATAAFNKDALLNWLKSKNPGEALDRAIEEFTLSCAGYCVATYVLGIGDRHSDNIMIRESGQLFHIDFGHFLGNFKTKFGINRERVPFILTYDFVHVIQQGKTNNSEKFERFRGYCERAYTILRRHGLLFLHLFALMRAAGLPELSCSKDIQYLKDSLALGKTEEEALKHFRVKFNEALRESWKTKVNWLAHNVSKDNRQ

Row | IC50 [1] [nM] | IC50 [2] [nM] | IC50 [3] [nM] | IC50 [4] [nM] | Compound
1 | ≤ 100 | ≤ 100 | 100 to 1000 | 100 to 1000 | CC(c1cc2ccccc2nc1-c1ccccc1)n1nc(-c2cc(O)cc(F)c2)c2c(N)ncnc21 (configuration not stated)
2 | ≤ 100 | ≤ 100 | 100 to 1000 |  | Nc1nc2ccc(-c3nn(Cc4nc5ccccc5nc4N4CCCC4)c4ncnc(N)c34)cc2s1
3 | ≤ 100 | ≤ 100 |  |  | Nc1ncnc2c1c(C=C1SC(=O)NC1=O)nn2Cc1cc2ccccc2nc1-c1ccccc1F
4 | ≤ 100 | ≤ 100 | ≤ 100 | ≤ 100 | CN1CCN(c2nc3ccccc3cc2Cn2nc(-c3ccc4nc(N)sc4c3)c3c(N)ncnc32)CC1
5 | ≤ 100 |  |  |  | Nc1ncnc2c1c(-c1cccc(O)c1)nn2Cc1cc2ccccc2nc1-c1cccnc1
6 | ≤ 100 | ≤ 100 |  |  | Cc1ccccc1-c1nc2ccccc2cc1Cn1nc(-c2ccc3nc(N)sc3c2)c2c(N)ncnc21
7 | ≤ 100 |  | 100 to 1000 |  | Cc1nccn1-c1nc2ccccc2cc1Cn1nc(-c2ccc3nc(N)sc3c2)c2c(N)ncnc21
8 | ≤ 100 | 100 to 1000 | 100 to 1000 | ≤ 100 | CC(=O)Nc1nc2ccc(-c3nn(Cc4nc5ccccc5nc4N4CCN(C)CC4)c4ncnc(N)c34)cc2s1
9 | ≤ 100 | ≤ 100 | ≤ 100 |  | CC(=O)Nc1nc2ccc(-c3nn(Cc4nc5ccccc5nc4N4CCCC4)c4ncnc(N)c34)cc2s1
10 | 100 to 1000 |  |  |  | Nc1ncc(-c2nn(Cc3cc4ccccc4nc3-c3ccccc3)c3ncnc(N)c23)cn1
11 | 100 to 1000 |  |  |  | NC(=O)C=Cc1nn(Cc2cc3ccccc3nc2-c2ccccc2F)c2ncnc(N)c12
12 | ≤ 100 |  |  |  | Nc1nc2ccc(-c3nn(Cc4cc5ccccc5nc4-c4ccccc4C(F)(F)F)c4ncnc(N)c34)cc2[nH]1
13 | ≤ 100 |  |  |  | CCC(c1cc2ccccc2nc1N1CCCC1)n1nc(C#C[C@@H](C)O)c2c(N)ncnc21 (some centres not stated)
14 | ≤ 100 |  |  |  | Nc1ncnc2c1c(-c1ccc3cn[nH]c3c1)nn2Cc1cc2ccccc2nc1N1CCCC1
15 | ≤ 100 |  |  | 100 to 1000 | CN1CCN(c2nc3ccccc3nc2Cn2nc(-c3cc(O)cc(F)c3)c3c(N)ncnc32)CC1
